Patent US9605027B2, “Polypeptides that bound to IL-23 receptor and inhibit binding of IL-23 and cell signaling thereof” (Medical Diagnostic Laboratories, LLC, priority 2011, dated 2017)
Peptide text beside a SMILES is read from it.

System: IL-23 induced IL-17F production in human Th17 cells
Assay: IL-17F production induced by IL-23 in in vitro differentiated human Th17 cells
Assay type: cell-based
Conditions: IL-23 1 ng/ml, peptide 0-10 μM, ELISA; read-out: IC50, inhibition of IL-17F production
Experimental: To that end, we designed and performed an in vitro assay using human differentiated Th17 cells. CD4+ naive T cells were negatively enriched using a human CD4+ naive T cells enrichment kit (StemCell Technologies, Catalog #19155). The purity of enriched CD4+ naive T cells was determined by FACS analysis. 1×10^6 cells/ml of CD4+ naive T cells were differentiated into Th17 cells under Th17 culture condition (CD3/28 beads, 10 ng/ml of IL-1β, 10 ng/ml of IL-6, 10 ng/ml of IL-23 and 1 ng/ml of TGF-β) for 5 days. All cytokines were purchased from Humanzyme. The CD3/28 beads were used according to the manufacturer's instructions (Miltenyi Biotec). Differentiation of Th17 cells was confirmed by the production of IL-17F using ELISA.
Experiments were performed where cyclic peptide no. 2HT AA (SEQ ID NO: 177) was added to the differentiated Th17 cells 30 minutes before the addition of IL-23 cytokine Th17 cells were stimulated for 2 days. Ionomycin (1 μg/ml)/PMA (50 ng/ml) (BD biosciences, San Jose, Calif.) were added to the stimulated cells 4 hours before the collection of media to measure the IL-17F production by ELISA (Catalog #88-7478, eBioscience, San Diego, Calif.). […]
CD4+ naive T cells were negatively enriched using human CD4+ naive T cells enrichment kit (StemCell Technologies, Catalog #19155). The purity of naive T cells was measured by FACS analysis. […]

IC50: 339 nM
SMILES: CSCC[C@@H]1NC(=O)[C@H](CCCCN)NC(=O)[C@H](C)NC(=O)[C@H](C)NC(=O)[C@H](CS)NC(=O)[C@H](CC(N)=O)NC(=O)[C@H](CCCCN)NC(=O)[C@H](CC(C)C)NC(=O)[C@H](Cc2c[nH]c3ccccc23)NC(=O)[C@H](Cc2ccc(O)cc2)NC(=O)[C@H](CC(=O)O)NC(=O)[C@H](C(C)C)NC(=O)[C@H](Cc2c[nH]c3ccccc23)NC(=O)[C@H]([C@@H](C)O)NC1=O [2HT AA] (cyclo(AAKMTWVDYWLKNC))
